Source: ChEMBL document CHEMBL1201862, “PubChem BioAssay data set” (2004)
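1) Cells in 96-well plates. 2) Compound, 48 h, 5 concentrations. 3) Linear interpolation between surrounding doses. 4) Unreached endpoint = highest concentration. Here, GI50 denotes the concentration required for 50% inhibition of growth.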 The source made the active and inactive calls. Cut-off read from the data, not from the text of the source: active = GI50 up to about 1.1 µM and inactive = higher.

Assays:
Test in all cases: DTP human tumour cell line panel, 48 h
[1] = test system: 786-0
[2] = test system: A498
[3] = test system: A549
[4] = test system: ACHN
[5] = test system: BT-549
[6] = test system: CAKI-1
[7] = test system: CCRF-CEM
[8] = test system: COLO 205
[9] = test system: DU-145
[10] = test system: EKVX
[11] = test system: HCC 2998
[12] = test system: HCT-116
[13] = test system: HCT-15
[14] = test system: HOP-62
[15] = test system: HT-29
[16] = test system: IGROV-1
[17] = test system: K562
[18] = test system: KM12
[19] = test system: LOX IMVI
[20] = test system: M14
[21] = test system: MCF7
[22] = test system: MDA-MB-231
[23] = test system: MDA-MB-435
[24] = test system: MOLT-4
[25] = test system: Malme-3M
[26] = test system: NCI-H226
[27] = test system: NCI-H23
[28] = test system: NCI-H460
[29] = test system: NCI/ADR-RES
[30] = test system: OVCAR-3
[31] = test system: OVCAR-4
[32] = test system: OVCAR-5
[33] = test system: OVCAR-8
[34] = test system: PC-3
[35] = test system: RPMI-8226
[36] = test system: RXF 393
[37] = test system: SF-268
[38] = test system: SF-295
[39] = test system: SF-539
[40] = test system: SK-MEL-28
[41] = test system: SK-MEL-2
[42] = test system: SK-MEL-5
[43] = test system: SK-OV-3
[44] = test system: SNB-19
[45] = test system: SR
[46] = test system: SW-620
[47] = test system: T47D
[48] = test system: TK-10
[49] = test system: U-251
[50] = test system: UACC-257
[51] = test system: UACC-62
[52] = test system: UO-31

SMILES: CS(=O)(=O)O[C@H]1CN2C[C@@H](O)[C@@H](O)[C@H]2[C@H]1CO.[B]
- GI50 [1]: > 100 µM (inactive)
- GI50 [2]: > 100 µM (inactive)
- GI50 [3]: > 100 µM (inactive)
- GI50 [4]: > 100 µM (inactive)
- GI50 [5]: > 100 µM (inactive)
- GI50 [6]: > 100 µM (inactive)
- GI50 [7]: 0.333 µM (active)
- GI50 [8]: > 100 µM (inactive)
- GI50 [9]: > 100 µM (inactive)
- GI50 [10]: > 100 µM (inactive)
- GI50 [11]: > 100 µM (inactive)
- GI50 [12]: > 100 µM (inactive)
- GI50 [13]: > 100 µM
- GI50 [14]: > 100 µM (inactive)
- GI50 [15]: > 100 µM (inactive)
- GI50 [16]: > 100 µM (inactive)
- GI50 [17]: > 100 µM (inactive)
- GI50 [18]: > 100 µM (inactive)
- GI50 [19]: > 100 µM (inactive)
- GI50 [20]: > 100 µM (inactive)
- GI50 [21]: > 100 µM (inactive)
- GI50 [22]: > 100 µM (inactive)
- GI50 [23]: > 100 µM (inactive)
- GI50 [24]: > 100 µM (inactive)
- GI50 [25]: > 100 µM (inactive)
- GI50 [26]: > 100 µM (inactive)
- GI50 [27]: > 100 µM (inactive)
- GI50 [28]: > 100 µM (inactive)
- GI50 [29]: > 100 µM (inactive)
- GI50 [30]: > 100 µM (inactive)
- GI50 [31]: > 100 µM (inactive)
- GI50 [32]: > 100 µM (inactive)
- GI50 [33]: > 100 µM (inactive)
- GI50 [34]: > 100 µM (inactive)
- GI50 [35]: > 100 µM (inactive)
- GI50 [36]: > 100 µM (inactive)
- GI50 [37]: > 100 µM (inactive)
- GI50 [38]: > 100 µM (inactive)
- GI50 [39]: > 100 µM (inactive)
- GI50 [40]: > 100 µM (inactive)
- GI50 [41]: > 100 µM (inactive)
- GI50 [42]: > 100 µM (inactive)
- GI50 [43]: > 100 µM (inactive)
- GI50 [44]: > 100 µM (inactive)
- GI50 [45]: > 100 µM (inactive)
- GI50 [46]: > 100 µM (inactive)
- GI50 [47]: > 100 µM (inactive)
- GI50 [48]: > 100 µM (inactive)
- GI50 [49]: > 100 µM (inactive)
- GI50 [50]: > 100 µM (inactive)
- GI50 [51]: > 100 µM (inactive)
- GI50 [52]: > 100 µM (inactive)
